Entries after “also recorded” stand apart in the source; their conditions may differ.
Experiments:
[1] = NMR titration repeated with acetylated peptide; format: binding; conditions: same conditions as for NH2-Ala-Ala-Phe-amide; N-terminus acetylated
Description: The concept is based on the observation that 18-crown-6 ether derivatives can associate with protonated amines such as amino groups present at the N-termini of peptides or proteins (Yeh et al 2009 J Am Soc Mass Spectrom 20:385-393). To determine the exchange rate of the interaction between N-termini of polypeptides and 18-crown-6 ethers, an NMR study was performed. A model peptide (NH2-Ala-Ala-Phe-amide) was used in combination with the 18-crown-6 analogue triaza-trioxo-crown ether (TTC-ether; FIG. 3). The model peptide was designed with an N-terminal Ala to easily determine the shift of the N-terminal Ala methyl group upon binding to the TTC-ether. Solutions of the peptide were prepared in D2O/D-acetonitrile (3 ml/1 ml) with 10 mM D-acetic acid. A concentration of 100 μM peptide was maintained and mixed with varying concentrations of the TTC-ether. […]
A 2D-TOCSY (Total Correlation Spectroscopy) spectrum allows the identification of the position of the two methyl groups of both Ala residues around 1.25 ppm and 1.43 ppm. […] In order to retrieve information about the binding of the crown ether with the peptide, a titration was performed with different concentrations of the TTC-ether after which the shifts for the Ala methyl groups was measured at high resolution. Indeed, Ala-methyl shifts were observed when different TTC-ether/peptide ratios are measured (FIG. 4A). […]

[2] = test system: peptide array [AA1][AA2]GGNNGG; assay: Crown ether binding on PEPperPRINT peptide array (fluorescence intensity); conditions: crown ether 0.1 μg/μl in 0.1% triethanolamine in 50% ACN
Description: To study the binding of crown ethers to different peptides, a peptide array is used (PEPperPRINT array), containing an array of 400 peptides comprising peptides with all amino acid combinations at the first and second N-terminal position ([AA1][AA2]GGNNGG; four replicates of each peptide). After applying a fluorescently labeled crown ether (Cy5.5-dibenzo-18-crown-6), the relative affinity for all peptide substrates is determined by the fluorescence intensity on each peptide spot. The crown ether was applied on the peptide array at a concentration of 0.1 μg/μl in 0.1% triethanolamine in 50% ACN. After binding the array was washed two times for 10 sec using the same buffer. Finally, the fluorescence intensity was measured using a LI-COR Odyssey Imaging system. […] The large hydrophobic side chains of the second amino acid likely interact with the hydrophobic regions of the crown ether (crown ether benzene rings and/or cy5.5 fluorophore).

Substance	interaction with TTC-ether (NMR shifts) [1]	relative binding (fluorescence intensity), variable second amino acid ([2]; peptides with N-terminal glycine)	relative binding (fluorescence intensity), variable N-terminal amino acid ([2]; peptides with leucine at the second position)
Acetyl-Ala-Ala-Phe-amide	did not measure any noticeable interaction	–	–
Cy5.5-dibenzo-18-crown-6	–	strongest on the peptides GFGGNNGG, GLGGNNGG, GYGGNNGG, GIGGNNGG, GKGGNNGG and GWGGNNGG	strongest on N-terminal glycine; also recorded: weakest on N-terminal proline
